Measured values published in patent US20260137706A1, “METHODS OF TREATING INFLAMMATORY DISEASES” (INTERLINE THERAPEUTICS, INC., priority 2023, published 2026).

Assays:
[1] = biological target: T1, GST-RIPK2 fusion protein (human RIPK2, amino acids 1-310) (Homo sapiens, UniProt O43353); assay: RIPK2 binding competition assay (TR-FRET, Tracer 199 displacement); conditions: 10 nM Tracer 199, 1 nM GST-RIPK2, read-out: RIPK2 IC50
T1 construct: made in house; host or cells: baculovirus infected Sf9 cells
T1 sequence (O43353 1-310): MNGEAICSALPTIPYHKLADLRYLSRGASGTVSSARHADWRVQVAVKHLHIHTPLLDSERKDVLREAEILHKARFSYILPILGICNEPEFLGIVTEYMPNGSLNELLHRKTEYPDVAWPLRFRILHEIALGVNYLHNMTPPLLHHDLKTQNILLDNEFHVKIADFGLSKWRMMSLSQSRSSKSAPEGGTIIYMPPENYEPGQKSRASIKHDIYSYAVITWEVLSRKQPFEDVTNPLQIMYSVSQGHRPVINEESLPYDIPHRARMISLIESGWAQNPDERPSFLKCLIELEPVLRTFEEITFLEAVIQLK
How it was run: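 GST-RIPK2 (human aa 1-310, Sf9-expressed; final 1 nM) with Tracer 199 (final 10 nM) and Tb-anti-GST (final 0.5 nM) in Tris pH 7.5 buffer, 45 min at 22 °C. TR-FRET 665/620 nm ratio after 337 nm excitation; normalized to no-inhibitor (0%) and no-protein (−100%), giving IC50.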

[2] = biological target: T2, binding of His-XIAP(BIR2)-avi fusion protein to GST-RIPK2 fusion protein (RIPK2/XIAP) (Homo sapiens, UniProt O43353); assay: RIPK2-XIAP binding competition PPI assay (TR-FRET); conditions: RIPK2/XIAP binding competition PPI assay; for Emax: Amax, read-out: PPI Amax bin; for IC50: read-out: PPI IC50 bin
T2 construct: made in house; host or cells: baculovirus infected Sf9 cells
T2 sequence (O43353 1-310 limits assumed): as the sequence (O43353 1-310) above
How it was run: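 Compounds (in DMSO, 100-fold stock) incubated 120 min at 23 °C with 1 nM GST-RIPK2 (aa 1-310) and 25 nM His-XIAP(BIR2 aa 152-231)-avi, plus anti-His-XL665 and anti-GST-Tb, in pH 7.5 Tris buffer. Read-out: 665/520 nm emission ratio. Normalized to no-inhibitor (0%) and 50 nM GSK583 (−100%); Amax binned A–D.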

[3] = system: NF-κB pathway (SEAP) in THP1-Dual cells; assay: THP-1 Dual cell SEAP assay (L18-MDP stimulated); type: cell-based; conditions: Homo sapiens, THP1-Dual, read-out: NF-κB THP1 IC50 bin
How it was run: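 THP1-Dual cells (~25,000/well) were preincubated 30 min with serially diluted compounds, then stimulated with 10 ng/mL L18-MDP (final) for 20-24 h at 37 °C. Supernatant SEAP was read with QUANTI-Blue at OD 620-655 nm after 2 h. IC50 came from non-linear fits of % inhibition versus DMSO/L18-MDP controls after media-blank subtraction.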

SMILES	IC50 [1] [nM]	Emax [2] [%]	IC50 [2] [nM]	IC50 [3] [nM]
C[C@@H](CO)COc1cn2ncc(-c3cc(F)c(N)nc3F)c2cc1S(=O)(=O)C(C)(C)C [Example 194, (S)-3-((3-(6-amino-2,5-difluoropyridin-3-yl)-5-(tert-butylsulfonyl)pyrazolo [1,5-a]pyridin-6-yl)oxy)-2-methylpropan-1-ol]	< 1	> 80	1 to 2.5	50 to 250
CN(C)C(=O)c1cc2ncc(-c3cc(F)c(N)nc3F)n2cc1S(=O)(=O)C(C)(C)C [Example 42, 3-(6-amino-2,5-difluoropyridin-3-yl)-6-(tert-butylsulfonyl)-N,N-dimethylimidazo[1,2-a]pyridine-7-carboxamide]	> 20	55 to 80	> 20	> 1000
COC(=O)Nc1ccc(-c2cnc3cc(OC)c(S(=O)(=O)C(C)(C)C)cn23)cn1 [Example 9, methyl (5-(6-(tert-butylsulfonyl)-7-methoxyimidazo[1,2-a]pyridin-3-yl)pyridin-2-yl)carbamate]	> 20	< 30	> 20	> 1000
COc1c(F)cc(-c2cnc3cc(OCCO)c(S(=O)(=O)C(C)(C)C)cn23)cc1NS(=O)(=O)c1cnn(C)c1 [Example 225, N-(5-(6-(tert-butylsulfonyl)-7-(2-hydroxyethoxy)imidazo[1,2-a]pyridin-3-yl)-3-fluoro-2-methoxyphenyl)-1-methyl-1H-pyrazole-4-sulfonamide]	< 1	> 80	< 1	< 50
COc1cc2ncc(-c3ccc4oc(N)nc4c3)n2cc1S(=O)(=O)C(C)(C)C [Example 104, 5-(6-(tert-butylsulfonyl)-7-methoxyimidazo[1,2-a]pyridin-3-yl)benzo[d]oxazol-2-amine]	> 20	30 to 55	> 20	> 1000
COc1cn2ncc(-c3cc(F)c(N)nc3F)c2cc1C1(O)CCN(C)CC1 [Example 73, 4-(3-(6-amino-2,5-difluoropyridin-3-yl)-6-methoxypyrazolo[1,5-a]pyridin-5-yl)-1-methylpiperidin-4-ol]	2.5 to 20	> 80	2.5 to 20	250 to 1000
COc1cc2ncc(-c3cc(F)c(N)nc3F)n2cc1S(=O)(=O)C(C)(C)CN1CCOCC1 [Example 168, 3,6-difluoro-5-(7-methoxy-6-((2-methyl-1-morpholinopropan-2-yl)sulfonyl)imidazo[1,2-a]pyridin-3-yl)pyridin-2-amine]	2.5 to 20	> 80	2.5 to 20	250 to 1000
CC1(C)CNc2ncc(-c3cnc4cc(OCCO)c(S(=O)(=O)C(C)(C)C)cn34)cc21 [Example 230, 2-((6-(tert-butylsulfonyl)-3-(3,3-dimethyl-2,3-dihydro-1H-pyrrolo[2,3-b]pyridin-5-yl)imidazo[1,2-a]pyridin-7-yl)oxy)ethan-1-ol]	> 20	< 30	> 20	> 1000
COc1c(F)cc(-c2cnc3cc(OCCO)c(S(=O)(=O)C(C)(C)C)cn23)cc1NS(C)(=O)=O [Example 223, N-(5-(6-(tert-butylsulfonyl)-7-(2-hydroxyethoxy)imidazo [1,2-a]pyridin-3-yl)-3-fluoro-2-methoxyphenyl) methanesulfonamide]	< 1	55 to 80	< 1	50 to 250
OCCCNc1cc(-c2cnn3ccc(C(F)(F)F)cc23)cc(F)n1 [Example 6, 3-((6-fluoro-4-(5-(trifluoromethyl)pyrazolo[1,5-a]pyridin-3-yl)pyridin-2-yl)amino)propan-1-ol]	2.5 to 20	< 30	> 20	50 to 250
Cn1cc(COc2cc3ncc(-c4cc(F)c(N)nc4F)n3cc2S(=O)(=O)C(C)(C)C)cn1 [Example 30, 5-(6-(tert-butylsulfonyl)-7-((1-methyl-1H-pyrazol-4-yl)methoxy)imidazo[1,2-a]pyridin-3-yl)-3,6-difluoropyridin-2-amine]	2.5 to 20	> 80	2.5 to 20	50 to 250
CC(C)(C)S(=O)(=O)c1cn2c(-c3cc(F)c(N)nc3F)cnc2cc1OCC1(O)COC1 [Example 38, 3-(((3-(6-amino-2,5-difluoropyridin-3-yl)-6-(tert-butylsulfonyl)imidazo[1,2-a]pyridin-7-yl)oxy)methyl)oxetan-3-ol]	1 to 2.5	> 80	2.5 to 20	50 to 250
CC(C)(C)S(=O)(=O)c1cn2c(-c3cc(F)c(N)nc3F)cnc2cc1OC1CCN(CCO)C1 (stereo not shown) [Example 43, 2-(3-((3-(6-amino-2,5-difluoropyridin-3-yl)-6-(tert-butylsulfonyl)imidazo[1,2-a]pyridin-7-yl)oxy)pyrrolidin-1-yl)ethan-1-ol]	2.5 to 20	> 80	2.5 to 20	> 1000
CC(C)(O)COc1cc2ncc(-c3cc(Cl)c(N)nc3F)n2cc1S(=O)(=O)C(C)(C)C [Example 240, 1-((3-(6-amino-5-chloro-2-fluoropyridin-3-yl)-6-(tert-butylsulfonyl)imidazo [1,2-a]pyridin-7-yl)oxy)-2-methylpropan-2-ol]	1 to 2.5	> 80	1 to 2.5	50 to 250
CCS(=O)(=O)Nc1cc(-c2cnn3cc(OCCO)c(S(=O)(=O)C(C)(C)C)cc23)cc(F)c1OC [Example 130, N-(5-(5-(tert-butylsulfonyl)-6-(2-hydroxyethoxy)pyrazolo[1,5-a]pyridin-3-yl)-3-fluoro-2-methoxyphenyl)ethanesulfonamide]	< 1	55 to 80	< 1	< 50
COc1cc2ncc(-c3ccc4cnn(C)c4c3)n2cc1S(=O)(=O)C(C)(C)C [Example 106, 6-(6-(tert-butylsulfonyl)-7-methoxyimidazo[1,2-a]pyridin-3-yl)-1-methyl-1H-indazole]	> 20	< 30	> 20	> 1000
COc1cc2ncc(-c3cnc4c(c3)CCCN4)n2cc1S(=O)(=O)C(C)(C)C [Example 85, 6-(6-(tert-butylsulfonyl)-7-methoxyimidazo[1,2-a]pyridin-3-yl)-1,2,3,4-tetrahydro-1,8-naphthyridine]	> 20	30 to 55	> 20	> 1000
CC(C)(C)S(=O)(=O)c1cn2c(-c3cc(Cl)c(N)nc3F)cnc2cc1OCC(=O)O [Example 299, 2-((3-(6-amino-5-chloro-2-fluoropyridin-3-yl)-6-(tert-butylsulfonyl)imidazo[1,2-a]pyridin-7-yl)oxy)acetic acid]	> 20	> 80	> 20	> 1000
CC(C)(C)S(=O)(=O)c1cn2c(-c3cnc4[nH]c(Cl)cc4c3)cnc2cc1OCCO [Example 233, 2-((6-(tert-butylsulfonyl)-3-(2-chloro-1H-pyrrolo[2,3-b]pyridin-5-yl)imidazo[1,2-a]pyridin-7-yl)oxy)ethan-1-ol]	2.5 to 20	< 30	> 20	> 1000
